Experimental findings from US10246456B2, “IRAK4 inhibiting agents” (BIOGEN MA INC., priority 2014, dated 2019) are described below.

A value given as a limit tells only on which side of the number the result lay.

By IC50 is commonly meant the point on the concentration scale where inhibition reaches its midpoint. The low end stands for higher potency, the high end for lower potency.

Chain of IRAK4 (Q9NWZ3 whole entry, species assumed): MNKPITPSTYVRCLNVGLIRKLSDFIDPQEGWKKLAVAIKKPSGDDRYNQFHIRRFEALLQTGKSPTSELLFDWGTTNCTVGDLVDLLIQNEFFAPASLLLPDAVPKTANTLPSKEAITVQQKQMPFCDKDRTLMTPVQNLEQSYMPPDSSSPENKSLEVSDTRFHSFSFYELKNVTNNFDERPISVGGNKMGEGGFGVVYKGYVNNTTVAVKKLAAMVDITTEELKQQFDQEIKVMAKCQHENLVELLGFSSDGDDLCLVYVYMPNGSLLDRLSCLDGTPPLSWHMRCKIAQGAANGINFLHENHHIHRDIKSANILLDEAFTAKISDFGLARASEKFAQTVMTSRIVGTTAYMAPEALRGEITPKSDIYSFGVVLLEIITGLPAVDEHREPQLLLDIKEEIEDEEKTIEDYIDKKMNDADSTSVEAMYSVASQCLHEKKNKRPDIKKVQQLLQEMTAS

In this assay the target is IRAK4 (Homo sapiens (Human), UniProt Q9NWZ3). The assay is described as follows: IRAK-4 AlphaScreen biochemical kinase assay. Conditions: 1 nM IRAK4, 1 mM ATP, 3.5 h at RT. The method in brief:
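AlphaScreen read-out: streptavidin beads bind the biotinylated peptide and protein A beads bind the anti-phosphothreonine antibody, so energy transfer reports phosphorylation of the peptide. The kinase is human IRAK-4.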
Molecule `Cc1cccc(-n2ncc3ccc(-c4csc(CO)n4)cc32)n1` [Example 320, (4-(1-(6-methylpyridin-2-yl)-1H-indazol-6-yl)thiazol-2-yl)methanol] showed an IC50 of 100 to 1000 nM.

The molecule `CC(N)c1cccc(-c2cc(F)c3cnn(-c4cccc(CO)n4)c3c2)n1` (centres unmarked) [Example 321, (6-(6-(6-(1-aminoethyl)pyridin-2-yl)-4-fluoro-1H-indazol-1-yl)pyridin-2-yl)methanol] gave an IC50 of less than 100 nM.

As for `CC[C@@H](N)c1cccc(-c2ccc3cnn(-c4cccc(CO)n4)c3c2)n1` [Example 322, (R)-(6-(6-(6-(1-aminopropyl)pyridin-2-yl)-1H-indazol-1-yl)pyridin-2-yl)methanol], the IC50 was less than 100 nM.

`Cc1cccc(-n2ncc3ccc(-c4cn(C)cn4)cc32)n1` [Example 323, 6-(1-methyl-1H-imidazol-4-yl)-1-(6-methylpyridin-2-yl)-1H-indazole] had an IC50 of 100 to 1000 nM.

As for `CCC[C@H](N)c1cccc(-c2cc(N3CCOCC3=O)c3cnn(-c4cccc(CO)n4)c3c2)n1` [Example 351, (S)-4-(6-(6-(1-aminobutyl)pyridin-2-yl)-1-(6-(hydroxymethyl)pyridin-2-yl)-1H-indazol-4-yl)morpholin-3-one], the IC50 is 100 to 1000 nM.

`C[C@H](N)c1cccc(-c2cc(-n3cccn3)c3cnn(-c4cccc(CO)n4)c3c2)n1` [Example 352, (S)-(6-(6-(6-(1-aminoethyl)pyridin-2-yl)-4-(1H-pyrazol-1-yl)-1H-indazol-1-yl)pyridin-2-yl)methanol] came in with an IC50 of less than 100 nM.

`Cc1ccn(-c2cc(-c3cccc([C@H](C)N)n3)cc3c2cnn3-c2cccc(CO)n2)n1` [Example 353, (S)-(6-(6-(6-(1-aminoethyl)pyridin-2-yl)-4-(3-methyl-1H-pyrazol-1-yl)-1H-indazol-1-yl)pyridin-2-yl)methanol]: the IC50 was less than 100 nM.

Molecule `C[C@H](N)c1cccc(-c2cc(-c3csc(C(F)(F)F)n3)c3cnn(-c4cccc(CO)n4)c3c2)n1` [Example 382, (S)-(6-(6-(6-(1-aminoethyl)pyridin-2-yl)-4-(2-(trifluoromethyl)thiazol-4-yl)-1H-indazol-1-yl)pyridin-2-yl)methanol] gave an IC50 of less than 100 nM.

Turning to `C[C@H](N)c1cccc(-c2cc(-c3cc(C(F)(F)F)[nH]n3)c3cnn(-c4cccc(CO)n4)c3c2)n1` [Example 383, (S)-(6-(6-(6-(1-aminoethyl)pyridin-2-yl)-4-(5-(trifluoromethyl)-1H-pyrazol-3-yl)-1H-indazol-1-yl)pyridin-2-yl)methanol], the IC50 is less than 100 nM.

Turning to `CCC[C@H](N)c1cccc(-c2cc(-c3ncccn3)c3cnn(-c4cccc(CO)n4)c3c2)n1` [Example 384, (S)-(6-(6-(6-(1-aminobutyl)pyridin-2-yl)-4-(pyrimidin-2-yl)-1H-indazol-1-yl)pyridin-2-yl)methanol], the IC50 was less than 100 nM.

Molecule `C[C@H](N)c1cccc(-c2cc(-c3ncc(F)cn3)c3cnn(-c4cccc(CO)n4)c3c2)n1` [Example 385, (S)-(6-(6-(6-(1-aminoethyl)pyridin-2-yl)-4-(5-fluoropyrimidin-2-yl)-1H-indazol-1-yl)pyridin-2-yl)methanol] showed an IC50 of less than 100 nM.

For the molecule `C[C@H](N)c1cccc(-c2cc(-c3ccn(C(F)F)n3)c3cnn(-c4cccc(CO)n4)c3c2)n1` [Example 386, (S)-(6-(6-(6-(1-aminoethyl)pyridin-2-yl)-4-(1-(difluoromethyl)-1H-pyrazol-3-yl)-1H-indazol-1-yl)pyridin-2-yl)methanol], the IC50 was less than 100 nM.

`C[C@H](N)c1cccc(-c2cc(-c3ccnn3C(F)F)c3cnn(-c4cccc(CO)n4)c3c2)n1` [Example 387, (S)-(6-(6-(6-(1-aminoethyl)pyridin-2-yl)-4-(1-(difluoromethyl)-1H-pyrazol-5-yl)-1H-indazol-1-yl)pyridin-2-yl)methanol] displayed an IC50 of less than 100 nM.

Molecule `C[C@H](N)c1cccc(-c2cc(-c3cnccn3)c3cnn(-c4cccc(CO)n4)c3c2)n1` [Example 388, (S)-(6-(6-(6-(1-aminoethyl)pyridin-2-yl)-4-(pyrazin-2-yl)-1H-indazol-1-yl)pyridin-2-yl)methanol] returned an IC50 of less than 100 nM.

Turning to `CCC[C@H](N)c1cccc(-c2cc(-c3cc(C)n(C)n3)c3cnn(-c4cccc(CO)n4)c3c2)n1` [Example 389, (S)-(6-(6-(6-(1-aminobutyl)pyridin-2-yl)-4-(1,5-dimethyl-1H-pyrazol-3-yl)-1H-indazol-1-yl)pyridin-2-yl)methanol], the IC50 was less than 100 nM.

Consider `CC[C@@H](N)c1cccc(-c2cc(-c3cc(C)n(C)n3)c3cnn(-c4cccc(CO)n4)c3c2)n1` [Example 390, (R)-(6-(6-(6-(1-aminopropyl)pyridin-2-yl)-4-(1,5-dimethyl-1H-pyrazol-3-yl)-1H-indazol-1-yl)pyridin-2-yl)methanol], for which the IC50 was less than 100 nM.

Regarding `Cc1cc(-c2cc(-c3cccc([C@@H](N)CF)n3)cc3c2cnn3-c2cccc(CO)n2)nn1C` [Example 391, (R)-(6-(6-(6-(1-amino-2-fluoroethyl)pyridin-2-yl)-4-(1,5-dimethyl-1H-pyrazol-3-yl)-1H-indazol-1-yl)pyridin-2-yl)methanol], the IC50 was less than 100 nM.

`Cc1cc(-c2cc(-c3cccc([C@@H](N)CCCO)n3)cc3c2cnn3-c2cccc(CO)n2)nn1C` [Example 392, (S)-4-amino-4-(6-(4-(1,5-dimethyl-1H-pyrazol-3-yl)-1-(6-(hydroxymethyl)pyridin-2-yl)-1H-indazol-6-yl)pyridin-2-yl)butan-1-ol] gave an IC50 of less than 100 nM.

Molecule `C[C@H](N)c1cccc(-c2cc(-c3ccncn3)c3cnn(-c4cccc(CO)n4)c3c2)n1` [Example 393, (S)-(6-(6-(6-(1-aminoethyl)pyridin-2-yl)-4-(pyrimidin-4-yl)-1H-indazol-1-yl)pyridin-2-yl)methanol] came in with an IC50 of less than 100 nM.

In turn, `C[C@H](N)c1cccc(-c2cc(-c3cccnn3)c3cnn(-c4cccc(CO)n4)c3c2)n1` [Example 394, (S)-(6-(6-(6-(1-aminoethyl)pyridin-2-yl)-4-(pyridazin-3-yl)-1H-indazol-1-yl)pyridin-2-yl)methanol] displayed an IC50 of less than 100 nM.

`Cn1ccc(-c2cc(-c3cccc([C@@H](N)CCCO)n3)cc3c2cnn3-c2cccc(CO)n2)n1` [Example 395, (S)-4-amino-4-(6-(1-(6-(hydroxymethyl)pyridin-2-yl)-4-(1-methyl-1H-pyrazol-3-yl)-1H-indazol-6-yl)pyridin-2-yl)butan-1-ol] had an IC50 of less than 100 nM.

Molecule `N[C@@H](CCCO)c1cccc(-c2ccc3cnn(-c4cccc(CO)n4)c3c2)n1` [Example 396, (S)-4-amino-4-(6-(1-(6-(hydroxymethyl)pyridin-2-yl)-1H-indazol-6-yl)pyridin-2-yl)butan-1-ol] yielded an IC50 of less than 100 nM.

For the molecule `CCC[C@H](N)c1cccc(-c2ccc3cnn(-c4ccnc(CO)c4)c3c2)n1` [Example 400, (S)-(4-(6-(6-(1-aminobutyl)pyridin-2-yl)-1H-indazol-1-yl)pyridin-2-yl)methanol], the IC50 lay within 100 to 1000 nM.

For the molecule `CCC[C@H](N)c1cccc(-c2ccc3cnn(-c4ccnc(CO)n4)c3c2)n1` [Example 401, (S)-(4-(6-(6-(1-aminobutyl)pyridin-2-yl)-1H-indazol-1-yl)pyrimidin-2-yl)methanol], the IC50 is less than 100 nM.

The molecule `CCC[C@H](N)c1cccc(-c2ccc3cnn(-c4cccc(CO)c4)c3c2)n1` [Example 402, (S)-(3-(6-(6-(1-aminobutyl)pyridin-2-yl)-1H-indazol-1-yl)phenyl)methanol] had an IC50 of less than 100 nM.

The molecule `CCC[C@H](N)c1cccc(-c2ccc3cnn(-c4nccc(CO)n4)c3c2)n1` [Example 403, (S)-(2-(6-(6-(1-aminobutyl)pyridin-2-yl)-1H-indazol-1-yl)pyrimidin-4-yl)methanol] yielded an IC50 of less than 100 nM.

`CCC[C@H](N)c1ccnc(-c2ccc3cnn(-c4cccc(CO)n4)c3c2)c1` [Example 404, (S)-(6-(6-(4-(1-aminobutyl)pyridin-2-yl)-1H-indazol-1-yl)pyridin-2-yl)methanol] gave an IC50 of 100 to 1000 nM.

Regarding `CCC[C@H](N)c1nccc(-c2ccc3cnn(-c4cccc(CO)n4)c3c2)n1` [Example 405, (S)-(6-(6-(2-(1-aminobutyl)pyrimidin-4-yl)-1H-indazol-1-yl)pyridin-2-yl)methanol], the IC50 was less than 100 nM.

In turn, `CCC[C@@H](N)c1nccc(-c2ccc3cnn(-c4cccc(CO)n4)c3c2)n1` [Example 406, (R)-(6-(6-(2-(1-aminobutyl)pyrimidin-4-yl)-1H-indazol-1-yl)pyridin-2-yl)methanol] registered an IC50 of less than 100 nM.

Regarding `CCC[C@H](N)c1cncc(-c2ccc3cnn(-c4cccc(CO)n4)c3c2)n1` [Example 407, (S)-(6-(6-(6-(1-aminobutyl)pyrazin-2-yl)-1H-indazol-1-yl)pyridin-2-yl)methanol], the IC50 is less than 100 nM.

On to `CCC[C@@H](N)c1cncc(-c2ccc3cnn(-c4cccc(CO)n4)c3c2)n1` [Example 408, (R)-(6-(6-(6-(1-aminobutyl)pyrazin-2-yl)-1H-indazol-1-yl)pyridin-2-yl)methanol], for which the IC50 is less than 100 nM.

`COc1cc(-c2cccc([C@@H](N)CCCO)n2)cc2c1cnn2-c1cccc(CO)n1` [Example 409, (S)-4-amino-4-(6-(1-(6-(hydroxymethyl)pyridin-2-yl)-4-methoxy-1H-indazol-6-yl)pyridin-2-yl)butan-1-ol] gave an IC50 of less than 100 nM.

Turning to `CCOc1cc(-c2cccc([C@@H](N)CCCO)n2)cc2c1cnn2-c1cccc(CO)n1` [Example 410, (S)-4-amino-4-(6-(4-ethoxy-1-(6-(hydroxymethyl)pyridin-2-yl)-1H-indazol-6-yl)pyridin-2-yl)butan-1-ol], the IC50 was less than 100 nM.

As to `C[C@@H](N)c1ccnc(-c2ccc3cnn(-c4cccc(CO)n4)c3c2)n1` [Example 412, (R)-(6-(6-(4-(1-aminoethyl)pyrimidin-2-yl)-1H-indazol-1-yl)pyridin-2-yl)methanol], the IC50 was in the range of 1000 to 10000 nM.

For the molecule `[2H][C@](N)(CCC)c1cccc(-c2ccc3cnn(-c4cccc(CO)n4)c3c2)n1` [Example 419, deutero (S)-(6-(6-(6-(1-aminobutyl)pyridin-2-yl)-1H-indazol-1-yl)pyridin-2-yl)methanol], the IC50 is less than 100 nM.
